From PubChem BioAssay AID1963874 (Molecular Pharmacology Branch, DTP, NCI, 2024)

Test system: 253994-281-T-J1-PDC KRAS-mutant spheroids with HUVEC/MSC, viability
Assay: Anticancer human tumor 253994-281-T-J1-PDC patient-derived colorectal carcinoma cell line growth inhibition [KRAS2]
Conditions: for IC50: curve of first compound; for viability, T/C: stronger effect = lower value
Summary of the method: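 Combination screen of spheroid viability in tumor-cell co-cultures with endothelial (HUVEC) and mesenchymal stem cell stroma. Each agent was tested in half-log dilutions, topping at clinical Cmax or at 10 microM without a known Cmax.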

[1] = second compound 0.1 µM, first compound 0.01 µM
[2] = second compound 0.1 µM, first compound 0.0316 µM
[3] = second compound 0.1 µM, first compound 0.1 µM
[4] = second compound 0.1 µM, first compound 0.316 µM
[5] = second compound 0.1 µM, first compound 1 µM
[6] = second compound 0.1 µM, first compound 3.16 µM
[7] = second compound 0.316 µM, first compound 0.01 µM
[8] = second compound 0.316 µM, first compound 0.0316 µM
[9] = second compound 0.316 µM, first compound 0.1 µM
[10] = second compound 0.316 µM, first compound 0.316 µM
[11] = second compound 0.316 µM, first compound 1 µM
[12] = second compound 0.316 µM, first compound 3.16 µM
[13] = second compound 1 µM, first compound 0.01 µM
[14] = second compound 1 µM, first compound 0.0316 µM
[15] = second compound 1 µM, first compound 0.1 µM
[16] = second compound 1 µM, first compound 0.316 µM
[17] = second compound 1 µM, first compound 1 µM
[18] = second compound 1 µM, first compound 3.16 µM
[19] = second compound 3.16 µM, first compound 0.01 µM
[20] = second compound 3.16 µM, first compound 0.0316 µM
[21] = second compound 3.16 µM, first compound 0.1 µM
[22] = second compound 3.16 µM, first compound 0.316 µM
[23] = second compound 3.16 µM, first compound 1 µM
[24] = second compound 3.16 µM, first compound 3.16 µM
[25] = second compound 10 µM, first compound 0.01 µM
[26] = second compound 10 µM, first compound 0.0316 µM
[27] = second compound 10 µM, first compound 0.1 µM
[28] = second compound 10 µM, first compound 0.316 µM
[29] = second compound 10 µM, first compound 1 µM
[30] = second compound 10 µM, first compound 3.16 µM
[31] = second compound 0.1 µM, first compound 10 µM
[32] = second compound 0.316 µM, first compound 10 µM
[33] = second compound 1 µM, first compound 10 µM
[34] = second compound 3.16 µM, first compound 10 µM
[35] = second compound 10 µM, first compound 10 µM
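Further: spheroids exposed to agents for seven days before readout.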
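Wherever viability, T/C is given: percent of DMSO vehicle control viability.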

With CC(=O)OC12COC1CC(O)C1(C)C(=O)C(O)C3=C(C)C(OC(=O)C(O)C(NC(=O)OC(C)(C)C)c4ccccc4)CC(O)(C(OC(=O)c4ccccc4)C21)C3(C)C (stereo not given) + CC1OCC2(CCN(c3cnc(Sc4ccnc(N)c4Cl)c(N)n3)CC2)C1N the IC50 (second compound 0.1 µM) was 20.4 nM, the IC50 (second compound 0.316 µM) was less than 10 nM and the IC50 (second compound 1 µM) was 27.1 nM. It also gave an IC50 (second compound 3.16 µM) of less than 10 nM, an IC50 (second compound 10 µM) of less than 10 nM and a viability, T/C [1] of 68.7%. It also gave a viability, T/C [2] of 39.5%, a viability, T/C [3] of 26.3% and a viability, T/C [4] of 23.2%. The viability, T/C [5] was 27.5%, the viability, T/C [6] was 21.8% and the viability, T/C [7] was 48.8%. For the same compound, the viability, T/C [8] was 29.2%, the viability, T/C [9] was 18.4% and the viability, T/C [10] was 19.2%. For the same compound, the viability, T/C [11] was 20.3%, the viability, T/C [12] was 18.1% and the viability, T/C [13] was 92%. For the same compound, the viability, T/C [14] was 42%, the viability, T/C [15] was 31.2% and the viability, T/C [16] was 24%. The viability, T/C [17] was 21%, the viability, T/C [18] was 21.7% and the viability, T/C [19] was 19.8%. For the same compound, the viability, T/C [20] was 18%, the viability, T/C [21] was 11.9% and the viability, T/C [22] was 11.7%. The viability, T/C [23] was 14.8%, the viability, T/C [24] was 12.5% and the viability, T/C [25] was 20%. For the same compound, the viability, T/C [26] was 14.4%, the viability, T/C [27] was 13.3% and the viability, T/C [28] was 12.8%. It also gave a viability, T/C [29] of 10.5% and a viability, T/C [30] of 11.8%.
With CN(C)C/C=C/C(=O)Nc1cc2c(Nc3ccc(F)c(Cl)c3)ncnc2cc1O[C@H]1CCOC1 + CC1OCC2(CCN(c3cnc(Sc4ccnc(N)c4Cl)c(N)n3)CC2)C1N the IC50 (second compound 0.1 µM) was greater than 100 nM, the IC50 (second compound 0.316 µM) was 86.5 nM and the IC50 (second compound 1 µM) was greater than 100 nM. For the same compound, the IC50 (second compound 3.16 µM) was less than 0.316 nM, the IC50 (second compound 10 µM) was greater than 100 nM and the viability, T/C (second compound 0.1 µM, first compound 0.000316 µM) was 85.5%. The viability, T/C (second compound 0.1 µM, first compound 0.001 µM) was 74.8%, the viability, T/C (second compound 0.1 µM, first compound 0.00316 µM) was 91.2% and the viability, T/C [1] was 79.3%. It also gave a viability, T/C [2] of 81.4%, a viability, T/C [3] of 58.5% and a viability, T/C (second compound 0.316 µM, first compound 0.000316 µM) of 57.1%. It also gave a viability, T/C (second compound 0.316 µM, first compound 0.001 µM) of 72.1%, a viability, T/C (second compound 0.316 µM, first compound 0.00316 µM) of 79.6% and a viability, T/C [7] of 70.6%. For the same compound, the viability, T/C [8] was 74%, the viability, T/C [9] was 47% and the viability, T/C (second compound 1 µM, first compound 0.000316 µM) was 79%. It also gave a viability, T/C (second compound 1 µM, first compound 0.001 µM) of 97%, a viability, T/C (second compound 1 µM, first compound 0.00316 µM) of 79.5% and a viability, T/C [13] of 86.3%. It also gave a viability, T/C [14] of 86.2%, a viability, T/C [15] of 83.5% and a viability, T/C (second compound 3.16 µM, first compound 0.000316 µM) of 31.1%. The viability, T/C (second compound 3.16 µM, first compound 0.001 µM) was 37.2%, the viability, T/C (second compound 3.16 µM, first compound 0.00316 µM) was 37.3% and the viability, T/C [19] was 42.9%. For the same compound, the viability, T/C [20] was 37.6%, the viability, T/C [21] was 31.4% and the viability, T/C (second compound 10 µM, first compound 0.000316 µM) was 75.4%. The viability, T/C (second compound 10 µM, first compound 0.001 µM) was 102%, the viability, T/C (second compound 10 µM, first compound 0.00316 µM) was 78.1% and the viability, T/C [25] was 106%. For the same compound, the viability, T/C [26] was 83.7% and the viability, T/C [27] was 65.7%.
COC(=O)c1ccc2c(C(=Nc3ccc(N(C)C(=O)CN4CCN(C)CC4)cc3)c3ccccc3)c(O)[nH]c2c1 + CC1OCC2(CCN(c3cnc(Sc4ccnc(N)c4Cl)c(N)n3)CC2)C1N showed an IC50 (second compound 0.1 µM) greater than 10000 nM, an IC50 (second compound 0.316 µM) of 3480 nM and an IC50 (second compound 1 µM) of 1460 nM. It also gave an IC50 (second compound 3.16 µM) of 156 nM, an IC50 (second compound 10 µM) of less than 31.6 nM and a viability, T/C [2] of 97.8%. The viability, T/C [3] was 87.2%, the viability, T/C [4] was 82.7% and the viability, T/C [5] was 85.3%. It also gave a viability, T/C [6] of 81.8%, a viability, T/C [31] of 70.7% and a viability, T/C [8] of 82.7%. The viability, T/C [9] was 67%, the viability, T/C [10] was 68.9% and the viability, T/C [11] was 85.2%. For the same compound, the viability, T/C [12] was 53.2%, the viability, T/C [32] was 15% and the viability, T/C [14] was 53.8%. It also gave a viability, T/C [15] of 50.9%, a viability, T/C [16] of 62.1% and a viability, T/C [17] of 51.7%. The viability, T/C [18] was 43.3%, the viability, T/C [33] was 17.8% and the viability, T/C [20] was 56.1%. It also gave a viability, T/C [21] of 52%, a viability, T/C [22] of 42.9% and a viability, T/C [23] of 40.7%. For the same compound, the viability, T/C [24] was 26.8%, the viability, T/C [34] was 1.64% and the viability, T/C [26] was 35%. The viability, T/C [27] was 35%, the viability, T/C [28] was 31.4% and the viability, T/C [29] was 20%. The viability, T/C [30] was 4.21% and the viability, T/C [35] was 0.83%.
Compound O=C(c1cc(Cc2n[nH]c(=O)c3ccccc23)ccc1F)N1CCN(C(=O)C2CC2)CC1 + CC1OCC2(CCN(c3cnc(Sc4ccnc(N)c4Cl)c(N)n3)CC2)C1N has an IC50 (second compound 0.1 µM) greater than 10000 nM, an IC50 (second compound 0.316 µM) greater than 10000 nM and an IC50 (second compound 1 µM) greater than 10000 nM. The IC50 (second compound 3.16 µM) was less than 31.6 nM, the IC50 (second compound 10 µM) was 655 nM and the viability, T/C [2] was 99%. It also gave a viability, T/C [3] of 81.4%, a viability, T/C [4] of 93.7% and a viability, T/C [5] of 90.7%. It also gave a viability, T/C [6] of 84.2%, a viability, T/C [31] of 95.5% and a viability, T/C [8] of 79.8%. It also gave a viability, T/C [9] of 65.7%, a viability, T/C [10] of 62.9% and a viability, T/C [11] of 120%. The viability, T/C [12] was 84.6%, the viability, T/C [32] was 79.5% and the viability, T/C [14] was 93.3%. The viability, T/C [15] was 94.1%, the viability, T/C [16] was 93.2% and the viability, T/C [17] was 81%. It also gave a viability, T/C [18] of 80.2%, a viability, T/C [33] of 90.7% and a viability, T/C [20] of 52.8%. It also gave a viability, T/C [21] of 46.2%, a viability, T/C [22] of 46.5% and a viability, T/C [23] of 48.4%. The viability, T/C [24] was 45.6%, the viability, T/C [34] was 57.6% and the viability, T/C [26] was 47.2%. It also gave a viability, T/C [27] of 45.5%, a viability, T/C [28] of 115% and a viability, T/C [29] of 38.8%. The viability, T/C [30] was 31.6% and the viability, T/C [35] was 30.4%.
